Measurements published in article PMC3090393, “New Noncovalent Inhibitors of Penicillin-Binding Proteins from Penicillin-Resistant Bacteria” (PLoS ONE, 2011).
Converted amounts (≈) assume the structure as drawn. Where two headings read alike, the source gives them in different places.

Columns and labels:
[1] = test system: Enterococcus faecium ATCC 19434; assay: In-vitro antibacterial activity (MIC, broth microdilution); assay type: cell-based; conditions: ATCC19434
Procedure: (§1) Determination of the antibacterial activities was carried out on microtiter plates, in 200 µL (final volume) of Müeller-Hinton Broth (MHB), following EUCAST (European Committee on Antimicrobial Susceptibility testing)/CLSI (Clinical and Laboratory Standard Institute) recommended procedures, [25]. The compounds were solubilized in MHB, just before use. Inocula were prepared for each strain by resuspending isolated colonies from 18 h cultured plates. Equivalents of 0.5 Mac Farland turbidity standards (approximately 1×10^8 CFU mL^−1) were prepared in saline solution ([…]) and then diluted 200-fold in MBH.

[2] = test system: Escherichia coli ATCC 8739; assay: as above; assay type: cell-based; conditions: ATCC8739
Procedure: as §1

[3] = test system: Enterococcus faecalis ATCC 29212; assay: as above; assay type: cell-based; conditions: ATCC29212
Procedure: as §1

[4] = test system: Staphylococcus aureus mp 1 (inducible MRSA); assay: as above; assay type: cell-based
Procedure: as §1

[5] = test system: Pseudomonas aeruginosa ATCC 27853; assay: as above; assay type: cell-based; conditions: ATCC27853
Procedure: as §1

[6] = test system: Enterococcus hirae ATCC 8790; assay: as above; assay type: cell-based; conditions: ATCC8790
Procedure: as §1

[7] = test system: Citrobacter freundii ATCC 8090; assay: as above; assay type: cell-based; conditions: ATCC8090
Procedure: as §1

[8] = test system: Streptococcus pneumoniae ATCC 33400; assay: as above; assay type: cell-based; conditions: ATCC33400
Procedure: as §1

[9] = test system: Streptococcus pneumoniae ATCC 49619; assay: as above; assay type: cell-based; conditions: ATCC49619
Procedure: as §1

[10] = test system: Listeria monocytogenes ATCC 14780; assay: as above; assay type: cell-based; conditions: ATCC14780
Procedure: as §1

[11] = test system: Listeria innocua ATCC 33090; assay: as above; assay type: cell-based; conditions: ATCC33090
Procedure: as §1

[12] = test system: Proteus mirabilis ATCC 29936; assay: as above; assay type: cell-based; conditions: ATCC29936
Procedure: as §1

[13] = test system: Bacillus subtilis ATCC 6633; assay: as above; assay type: cell-based; conditions: ATCC6633
Procedure: as §1

[14] = test system: Staphylococcus epidermidis ATCC 12228; assay: as above; assay type: cell-based; conditions: ATCC12228
Procedure: as §1

[15] = test system: Staphylococcus aureus ATCC 25923; assay: as above; assay type: cell-based; conditions: ATCC25923
Procedure: as §1

[16] = test system: Staphylococcus aureus ATCC 43300 (MRSA); assay: as above; assay type: cell-based
Procedure: as §1

[17] = test system: Enterococcus faecalis ATCC 7937; assay: as above; assay type: cell-based; conditions: ATCC7937
Procedure: as §1

[18] = test system: Streptococcus pneumoniae D39; assay: as above; assay type: cell-based
Procedure: as §1

[19] = test system: Micrococcus luteus ATCC 9341; assay: as above; assay type: cell-based; conditions: ATCC9341
Procedure: as §1

[20] = test system: Klebsiella pneumoniae ATCC 13883; assay: as above; assay type: cell-based; conditions: ATCC13883
Procedure: as §1

[21] = test system: S. aureus ATCC43300 resistant strain; assay: Killing curves experiments; assay type: cell-based, Staphylococcus aureus; conditions: concentration equivalent to 4 times the MIC; data not shown
PBP5fm = PBP5fm (Enterococcus faecium, UniProt Q47759); assay: PBP5fm enzymatic inhibition assay (fluorescein-labeled ampicillin, residual penicillin binding activity); assay type: biochemical, Enterococcus faecium D63r; conditions: 4 h; residual activity of the enzyme at 1 mM inhibitor; 0.01% Triton X-100; read-out: PBP5fm RA [%]
Procedure: (§2) PBP2a from Staphylococcus aureus ATCC 43300 and PBP5fm from Enterococcus faecium D63r were overproduced and purified as described previously, [18].
(§3) Each of the purified PBPs (2.5 µM) were first incubated with 1 mM potential inhibitor in 100 mM phosphate buffer, 0.01% Triton X-100[19], pH 7, for 4 h at 30°C. Then, 25 µM fluorescein-labeled ampicillin[20] was added to detect the residual penicillin binding activity (RA). The samples were further incubated for 30 min at 37°C in a total volume of 20 µL. Denaturation buffer was added (0.1 M Tris/HCl, pH 6.8, containing 25% glycerol, 2% SDS, 20% β-mercaptoethanol and 0.02% bromophenol blue) and the samples were heated to 100°C for 1 min. The samples were then loaded onto a 10% SDS-acrilamide gel (10×7 cm) and electrophoresis was performed for 45 min at 180 V (12 mA). Detection and quantification of the RAs were with Molecular Image FX equipment and Quantity One software (BioRad, Hercules, CA, USA). Three independent experiments were carried out for each inhibitor.

PBP2a = target: T1, PBP2a (Staphylococcus aureus, UniProt P07944); assay: PBP2a enzymatic inhibition assay (fluorescein-labeled ampicillin, residual penicillin binding activity); assay type: biochemical, Staphylococcus aureus ATCC 43300
T1 construct: made in house
Procedure: as §2, §3

[22] = test system: protoplasts of S. aureus ATCC43300 resistant strain; assay: Effect on protoplasts; assay type: cell-based, Staphylococcus aureus; conditions: concentration equivalent to 4 times the MIC; after ten minutes
Procedure: The importance of this hit compound is further underlined by its very promising minimum inhibitory concentrations (MICs) against several Gram-positive bacterial strains, including MRSA (32 µg/mL). […] This assumption is confirmed by the fact that for S. aureus ATCC25923 strain, sensitive to penicillin and devoid of PBP2a, compound 1 has the same MIC value as for the other two resistant S. aureus strains (Table 2) where PBP2a is present. To better understand the antibacterial activity of compound 1, we performed an experiment to evaluate the effect of compound 1 on the protoplasts of S. aureus ATCC43300 resistant strain, at a concentration equivalent to 4 times the MIC. […] Further analysis is needed to better understand the precise mode of action of these inhibitors on the bacterial cell.

[23] = test system: all of the Staphylococcus aureus tested strains; assay: In-vitro antibacterial activity (MIC), Staphylococcus aureus strains; assay type: cell-based
Procedure: as §1

T1 sequence (P07944 whole entry): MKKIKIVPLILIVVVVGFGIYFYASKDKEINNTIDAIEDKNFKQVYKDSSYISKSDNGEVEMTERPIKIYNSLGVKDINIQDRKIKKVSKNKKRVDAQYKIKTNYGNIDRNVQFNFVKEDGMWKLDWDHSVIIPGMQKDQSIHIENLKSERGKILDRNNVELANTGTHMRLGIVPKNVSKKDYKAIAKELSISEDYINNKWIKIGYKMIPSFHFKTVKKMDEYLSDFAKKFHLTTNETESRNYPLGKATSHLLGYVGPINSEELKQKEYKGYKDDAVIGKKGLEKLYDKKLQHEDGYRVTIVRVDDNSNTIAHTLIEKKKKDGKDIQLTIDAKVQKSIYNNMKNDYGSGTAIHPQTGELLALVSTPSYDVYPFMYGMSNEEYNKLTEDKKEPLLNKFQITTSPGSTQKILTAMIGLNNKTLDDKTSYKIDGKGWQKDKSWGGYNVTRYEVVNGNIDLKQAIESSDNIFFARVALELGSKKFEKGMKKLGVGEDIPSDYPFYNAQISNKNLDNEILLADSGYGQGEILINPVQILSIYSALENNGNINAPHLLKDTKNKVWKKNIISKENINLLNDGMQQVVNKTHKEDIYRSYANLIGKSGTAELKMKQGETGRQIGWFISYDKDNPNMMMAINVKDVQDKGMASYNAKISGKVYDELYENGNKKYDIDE
Sequence of PBP5fm (Q47759 entry or part of it): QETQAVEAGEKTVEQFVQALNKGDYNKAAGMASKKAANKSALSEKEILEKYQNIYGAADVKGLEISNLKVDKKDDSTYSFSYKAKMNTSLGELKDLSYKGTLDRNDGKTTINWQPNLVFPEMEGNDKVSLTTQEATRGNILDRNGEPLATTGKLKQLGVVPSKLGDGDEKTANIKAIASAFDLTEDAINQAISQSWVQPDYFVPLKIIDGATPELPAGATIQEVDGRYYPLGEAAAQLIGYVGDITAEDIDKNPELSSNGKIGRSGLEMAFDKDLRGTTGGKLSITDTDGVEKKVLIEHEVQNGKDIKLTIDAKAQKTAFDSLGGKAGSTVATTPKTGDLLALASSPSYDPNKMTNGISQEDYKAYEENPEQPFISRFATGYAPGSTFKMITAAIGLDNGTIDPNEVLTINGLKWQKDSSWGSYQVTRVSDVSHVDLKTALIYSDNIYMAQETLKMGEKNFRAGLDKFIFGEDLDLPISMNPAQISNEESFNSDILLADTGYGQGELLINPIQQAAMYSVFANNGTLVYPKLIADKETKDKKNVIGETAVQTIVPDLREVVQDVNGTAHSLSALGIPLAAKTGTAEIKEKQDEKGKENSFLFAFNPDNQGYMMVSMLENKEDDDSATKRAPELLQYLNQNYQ

Q: What does the source list for `CCCCOc1ccc2cc(S(=O)(=O)Nc3ccccc3C(=O)O)ccc2c1` [compound 1, 2-(6-butoxynaphthalene-2-sulfonamido)benzoic acid]?
A: MIC [1]: 64 µg/mL (≈ 160 µM); MIC [2]: > 1020 µg/mL; MIC [3]: 32 µg/mL (≈ 80.1 µM); MIC [4]: 32 µg/mL (≈ 80.1 µM); MIC [5]: > 1020 µg/mL; MIC [6]: 16 µg/mL (≈ 40.1 µM); MIC [7]: > 1020 µg/mL; MIC [8]: 1 µg/mL (≈ 2.5 µM); MIC [9]: 1 µg/mL (≈ 2.5 µM); MIC [10]: 16 µg/mL (≈ 40.1 µM); MIC [11]: 16 µg/mL (≈ 40.1 µM); MIC [12]: > 1020 µg/mL; MIC [13]: 2 µg/mL (≈ 5.01 µM); MIC [14]: 32 µg/mL (≈ 80.1 µM); MIC [15]: 32 µg/mL (≈ 80.1 µM); MIC [16]: 32 µg/mL (≈ 80.1 µM); MIC [17]: 16 µg/mL (≈ 40.1 µM); MIC [18]: 1 µg/mL (≈ 2.5 µM); MIC [19]: 2 µg/mL (≈ 5.01 µM); MIC [20]: > 1020 µg/mL; melting point: 192 to 194 °C; killing curves, bacterial count [21]: no viable cells were observed after 120 min; activity at 1000 µM (PBP5fm): 100%; remaining activity at 1000 µM (PBP2a; 4 h, residual activity of the enzyme at 1 mM inhibitor, 0.01% Triton X-100, mean of three experiments, read-out: PBP2a RA [%]): 0%; IC50 (PBP2a; in the presence of 0.01% Triton X-100): 97 µM; effect on protoplasts [22]: complete lysis of protoplasts; MIC ([23]; MRSA, read-out: minimum inhibitory concentration (MIC) against MRSA): 32 µg/mL; MIC ([23]; all S. aureus tested strains, converted from µg/ml, read-out: MIC value for all of the Staphylococcus aureus tested strains): 80 µM; MIC ([23]; all S. aureus tested strains, read-out: MIC value for all of the Staphylococcus aureus tested strains): 32 µg/mL
